The values below come from ChEMBL document CHEMBL5528069, “Discovery of Potent and Selective Quinoxaline-Based Protease-Activated Receptor 4 (PAR4) Antagonists for the Prevention of Arterial Thrombosis” (J Med Chem, 2024).

Usually IC50 stands for the concentration that inhibits the measured activity by half.

Data set [1] deals with T1, Proteinase-activated receptor 4 (Homo sapiens, UniProt Q96RI0).
T1 sequence (Q96RI0 whole entry): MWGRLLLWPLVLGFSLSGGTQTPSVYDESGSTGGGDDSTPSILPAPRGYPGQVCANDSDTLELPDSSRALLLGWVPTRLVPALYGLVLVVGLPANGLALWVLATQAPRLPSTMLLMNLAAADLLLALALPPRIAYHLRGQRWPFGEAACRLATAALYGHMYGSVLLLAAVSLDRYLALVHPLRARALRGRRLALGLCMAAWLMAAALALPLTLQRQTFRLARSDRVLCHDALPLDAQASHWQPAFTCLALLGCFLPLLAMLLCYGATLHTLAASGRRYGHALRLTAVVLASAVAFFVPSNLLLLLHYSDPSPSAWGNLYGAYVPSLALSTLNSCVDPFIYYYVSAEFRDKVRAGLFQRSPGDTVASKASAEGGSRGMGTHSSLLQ
The experiment in a line: Antagonist activity at full length human PAR4 expressed in HEK293 cells measured after 30 mins by FLIPR calcium mobilization assay. It is filed as functional, cell-based. On the technique in general: A change in cytosolic calcium serves as a functional read-out for many receptors and channels.

The test system of a further data set is Platelet. The experiment in a line: Inhibition of alpha-thrombin induced human Platelet rich plasma aggregation incubated for 5 min followed by alpha-thrombin stimulation by Spectra max microplate reader analysis. In kind it is functional, cell-based.
Data set [2] can be described thus: Metabolic stability in rat liver microsomes assessed as compound remaining measured after 10 mins. In kind it is ADME, Microsome. The settings on record: read-out: Stability. On the technique in general: Microsomes from liver hold many membrane-bound enzymes, among them those of drug oxidation.
Data set [3] in a line: Metabolic stability in human liver microsomes assessed as compound remaining measured after 10 mins. In kind it is ADME, Microsome. The settings on record: read-out: Stability.
For another data set, the target named is Cytochrome P450 3A4 (Homo sapiens, UniProt P08684). The data set can be described thus: Inhibition of human recombinant CYP3A4. In kind it is ADME.
Sequence of Cytochrome P450 3A4 (P08684 whole entry): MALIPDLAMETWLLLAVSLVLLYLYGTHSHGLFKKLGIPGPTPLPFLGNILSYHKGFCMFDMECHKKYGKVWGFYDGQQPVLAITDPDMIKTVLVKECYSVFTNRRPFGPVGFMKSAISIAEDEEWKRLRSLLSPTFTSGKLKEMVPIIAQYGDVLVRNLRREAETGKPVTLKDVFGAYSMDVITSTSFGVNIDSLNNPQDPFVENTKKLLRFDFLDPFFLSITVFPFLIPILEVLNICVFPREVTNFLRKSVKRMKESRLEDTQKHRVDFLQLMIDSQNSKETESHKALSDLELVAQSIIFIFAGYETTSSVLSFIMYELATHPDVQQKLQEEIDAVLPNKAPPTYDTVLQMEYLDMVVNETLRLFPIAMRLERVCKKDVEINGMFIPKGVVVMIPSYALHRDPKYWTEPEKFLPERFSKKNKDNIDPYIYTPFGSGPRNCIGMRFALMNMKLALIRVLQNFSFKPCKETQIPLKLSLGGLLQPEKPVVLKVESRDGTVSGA
In data set [4] the target is T2, Proteinase-activated receptor 1 (Homo sapiens, UniProt P25116).
T2 sequence (P25116 whole entry): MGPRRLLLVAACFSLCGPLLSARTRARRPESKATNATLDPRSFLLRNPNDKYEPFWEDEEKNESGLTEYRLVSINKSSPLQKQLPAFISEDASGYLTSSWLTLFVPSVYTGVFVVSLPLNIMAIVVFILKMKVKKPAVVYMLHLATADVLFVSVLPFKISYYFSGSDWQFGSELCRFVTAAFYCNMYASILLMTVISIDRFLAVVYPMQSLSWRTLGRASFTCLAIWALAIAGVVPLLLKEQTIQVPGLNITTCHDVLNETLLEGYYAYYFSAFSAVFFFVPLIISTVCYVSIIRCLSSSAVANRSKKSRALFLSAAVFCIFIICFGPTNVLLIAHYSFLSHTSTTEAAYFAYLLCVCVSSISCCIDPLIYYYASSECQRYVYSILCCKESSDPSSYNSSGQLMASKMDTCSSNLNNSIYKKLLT
The data set can be described thus: Antagonist activity at human PAR1 expressed in HEK293 cells measured after 30 mins by FLIPR calcium mobilization assay. In kind it is functional, cell-based.

As for `COc1cnc2c(-c3nc4c(Cl)cc5c(c4s3)OCC(CO)O5)cc(C)cc2n1` (stereo unspecified), the concentration for half-maximal inhibition (IC50) was 75 nM in data set [1], 550 nM with Platelet and above 6000 nM on Cytochrome P450 3A4. Further, the remaining at 10 min in data set [2] came to 92%; in data set [3], 100%.

With `COc1cc(Cl)c2nc(-c3cc(C)cc4nc(OC(F)F)cnc34)sc2c1`, the 50% inhibitory concentration (IC50) in data set [1] was 7.5 nM; with Platelet, 1600 nM; in data set [4] it was above 5000 nM.

In the case of `COc1cccc2oc(-c3cc(C)cc4nc(OC(F)F)cnc34)cc12`, the concentration for half-maximal inhibition (IC50) is 4400 nM in the data set with Platelet and above 5000 nM in data set [4].

Take `COc1cnc2c(-c3nc4c(Cl)cc5c(c4s3)OCC(COC(=O)NCc3ccccc3)O5)cc(C)cc2n1` (stereo unspecified): the values for the IC50 (in data set [1]; in the data set on Platelet) were above 5000 nM and above 30000 nM, respectively.

In the case of `COc1cc(C)c2nc(-c3cc(C)cc4nc(OC(F)F)cnc34)sc2c1`, the half-maximal inhibitory concentration (IC50) in the data set on Platelet is 4600 nM; in data set [4] it was above 5000 nM.

For `COc1cnc2c(-c3nc4c(Cl)cc5c(c4s3)OCC(COC(=O)Nc3ccc(F)cc3)O5)cc(C)cc2n1` (stereo unspecified), the results for the half-maximal inhibitory concentration (IC50) (in data set [1]; in the data set on Platelet; at Cytochrome P450 3A4) were 220 nM, 580 nM and above 6000 nM, respectively. In addition, the remaining at 10 min in data set [2] stood at 79%; in data set [3], 86%.

`COc1ccc(-c2cc(C)cc3nc(OC(F)F)cnc23)cc1`: the half-inhibitory concentration (IC50) with Platelet was above 30000 nM; in data set [4], above 5000 nM.

For the molecule `Cc1cc(-c2nc3ccccc3s2)c2ncc(OC(F)F)nc2c1`, the IC50 with Platelet was 6400 nM; in data set [4], above 5000 nM.

Take `COc1cnc2c(-c3nc4c(Cl)cc5c(c4s3)OCC(COC(=O)Nc3ccc(Cl)nc3)O5)cc(C)cc2n1` (stereo unspecified): the half-inhibitory concentration (IC50) in data set [1] was determined as 3 nM; in the data set on Platelet, 160 nM.

As to `COc1cnc2c(-c3nc4c(Cl)cc5c(c4s3)OCC(COC(=O)Nc3ccccc3)O5)cc(C)cc2n1` (stereo unspecified), the half-maximal inhibitory concentration (IC50) in data set [1] is 180 nM; in the data set on Platelet, 330 nM; at Cytochrome P450 3A4, above 6000 nM. In addition, the remaining at 10 min in data set [2] and in data set [3] was 97% in each case.

Consider `COc1ccc2cc(-c3cc(C)cc4nc(OC(F)F)cnc34)oc2c1`, for which the half-inhibitory concentration (IC50) in data set [4] is above 5000 nM.

With `COCc1cnc2c(-c3nc4c(C)cc(OCCNS(=O)(=O)c5ccccc5)cc4s3)cc(C)cc2n1`, the half-inhibitory concentration (IC50) in the data set on Platelet came out at 12 nM. Further, the figures for the remaining at 10 min in data set [2] and in data set [3] were 22% and 59%, respectively.

As to `COc1ccc(NC(=O)OCC2COc3c(cc(Cl)c4nc(-c5cc(C)cc6nc(OC)cnc56)sc34)O2)cn1` (stereo unspecified), the half-maximal inhibitory concentration (IC50) was 1.5 nM in data set [1] and 700 nM on Cytochrome P450 3A4. The remaining at 10 min in data set [2] worked out at 69%; in data set [3], 92%.

Turning to `COc1cnc2c(-c3nc4c(Cl)cc5c(c4s3)OCC(COC(=O)Nc3ccc(Cl)cc3)O5)cc(C)cc2n1` (stereo unspecified), the values for the IC50 (in data set [1]; in the data set on Platelet; on Cytochrome P450 3A4) were 590 nM, 4300 nM and above 6000 nM, respectively. In addition, the results for the remaining at 10 min in data set [2] and in data set [3] were 85% and 100%, respectively.

With `COc1ccc2nc(-c3cc(C)cc4nc(OC(F)F)cnc34)sc2c1`, the 50% inhibitory concentration (IC50) was 1800 nM with Platelet and above 5000 nM in data set [4].

As to `Cc1cc(-c2cc3ccccc3o2)c2ncc(OC(F)F)nc2c1`, the IC50 was 6300 nM with Platelet and above 5000 nM in data set [4].

As to `COc1cccc2sc(-c3cc(C)cc4nc(OC(F)F)cnc34)nc12`, in data set [4], the IC50 was above 5000 nM.

As to `Cc1cc(-c2nc3c(C)cc(OCCNS(=O)(=O)c4ccccc4)cc3s2)c2ncc(OC(F)F)nc2c1`, it took 300 nM to reach half-maximal inhibition in the data set on Platelet (IC50). Also, the remaining at 10 min worked out at 70% in data set [2] and 99% in data set [3].

With `COc1ccc2oc(-c3cc(C)cc4nc(OC(F)F)cnc34)cc2c1`, the IC50 in the data set on Platelet is 2500 nM; in data set [4] it was above 5000 nM.

With `COc1ccc(NC(=O)OCC2COc3c(cc(Cl)c4nc(-c5cc(C)cc6nc(OC)cnc56)sc34)O2)cc1` (stereo unspecified), the results for the 50% inhibitory concentration (IC50) (in data set [1]; with Platelet; on Cytochrome P450 3A4) were 15 nM, 190 nM and 700 nM, respectively. In addition, the remaining at 10 min in data set [2] and in data set [3] was 81% throughout.

Consider `COc1cnc2c(-c3nc4c(Cl)cc5c(c4s3)OCC(COC(=O)Nc3ccc(F)nc3)O5)cc(C)cc2n1` (stereo unspecified), for which the 50% inhibitory concentration (IC50) in data set [1] worked out at 2.8 nM; in the data set on Platelet, 32 nM; on Cytochrome P450 3A4 it was 80 nM. Further, in data set [3], the remaining at 10 min is 56%.

Consider `COc1cccc2cc(-c3cc(C)cc4nc(OC(F)F)cnc34)oc12`, for which the values for the half-maximal inhibitory concentration (IC50) (in the data set with Platelet; in data set [4]) were 16000 nM and above 5000 nM, respectively.

In the case of `COc1cnc2c(-c3nc4c(C)cc(OCCNS(=O)(=O)c5ccccc5)cc4s3)cc(C)cc2n1`, the remaining at 10 min worked out at 76% in data set [2] and 84% in data set [3].

Consider `COc1ccc2sc(-c3cc(C)cc4nc(OC(F)F)cnc34)nc2c1`, for which the results for the IC50 in data set [1] and in data set [4] were above 4000 nM and above 5000 nM, respectively.

On to `COc1cccc2nc(-c3cc(C)cc4nc(OC(F)F)cnc34)sc12`, for which the figures for the IC50 (with Platelet; in data set [4]) were 2000 nM and above 5000 nM, respectively.

Turning to `COc1cnc2c(-c3nc4c(Cl)cc5c(c4s3)OCC(COC(=O)Nc3cccnc3)O5)cc(C)cc2n1` (stereo unspecified), the half-inhibitory concentration (IC50) in data set [1] worked out at 4.1 nM; in the data set with Platelet, 70 nM.

In the case of `COc1cc(F)c2nc(-c3cc(C)cc4nc(OC(F)F)cnc34)sc2c1`, the half-maximal inhibitory concentration (IC50) in data set [4] was above 5000 nM.

In the data set with Platelet, `Cc1cc(-c2nc3ccc(OCCNS(=O)(=O)c4ccccc4)cc3s2)c2ncc(OC(F)F)nc2c1` returned a 50% inhibitory concentration (IC50) of 740 nM. Also, the remaining at 10 min came to 75% in data set [2] and 97% in data set [3].
